Assay [1] has as its target T1, TIP60-KAT5 (Homo sapiens, UniProt Q92993).
T1 construct: encoding amino acid residues 2 to 461 (Uniprot Q92993-2) of human KAT5 isoform; made in house; host or cells: E. coli BL21 DE3
Description: Acetyltransferase biochemical assay (AlphaScreen), KAT5. Particulars: Table 1 (TIP60-KAT5); 0.4 μM Acetyl coenzyme A, histone H4, 10 nM enzyme.

Assay [2] addresses T2, MOZ-KAT6A (Homo sapiens, UniProt Q92794, A567V).
T2 construct: encoding amino acid residues 507 to 778 (Uniprot Q92794-1) of human KAT6A; made in house; host or cells: E. coli BL21 DE3
In words: Acetyltransferase biochemical assay (AlphaScreen), KAT6A. Conditions: Table 2 (MOZ-KAT6A); 10 μM Acetyl coenzyme A, histone H3.1, 5 nM enzyme. On the technique in general: Alpha assays give light when donor and acceptor beads are brought close together.

Assay [3] deals with T2, MOZ-KAT6A. Description: Revised Acetyltransferase Biochemical Assay, KAT6A. Conditions: Table 8 (MOZ-KAT6A), 1 μM Acetyl coenzyme A.
Assay [4] has as its target T3, HBO-KAT7 (Homo sapiens, UniProt O95251).
T3 construct: encoding amino acid residues 325 to 611 (Uniprot 095251-1) of human KAT7; made in house; host or cells: E. coli BL21 DE3 RIL
Description: Revised Acetyltransferase Biochemical Assay, KAT7. Particulars: Table 9 (HBO-KAT7), 1 μM Acetyl coenzyme A.

Assay [5] addresses T1, TIP60-KAT5. In words: Revised Acetyltransferase Biochemical Assay, KAT5. Conditions: 10 nM KAT5, 1 μM AcCoA, 100 nM histone H4, 90 min.
The target in assay [6] is T4, QKF-KAT6B (Homo sapiens, UniProt Q8WYB5).
T4 construct: purchased SignalChem K315-381BG
In words: Revised Acetyltransferase Biochemical Assay, KAT6B. Conditions: 8 nM KAT6B, 1 μM AcCoA, 100 nM histone H3.1, 90 min. The text has this: KAT6B was obtained from SignalChem, catalog ID: K315-381BG

Assay [7] concerns histone H3K23 acetylation (KATE mediated) in U2OS cells. In words: Histone H3 Lysine 23 Acetylation Biomarker Assay (U2OS). It counts as cell-based. Particulars: 96 well, 24 hours incubation. The protocol: Compounds may be tested for their ability to inhibit acetylation of the histone H3K23 marker, which is KATE mediated, in the following assay:
The cell line U2OS was seeded at a density of 9,000 cells per well in 96 well optical quality tissue culture plates in RPMI medium and 10% foetal bovine serum, and allowed to adhere for 24 hours under standard culture conditions (37 degree Celsius, 5% CO2). At the end of this period the medium was aspirated. Compound dilutions prepared in DMSO were added to medium, with negative control wells reserved for treatment with DMSO only and 100% inhibition positive controls receiving a potent inhibitor compound (e.g. cas 2055397-28-7, benzoic acid, 3-fluoro-5-(2-pyridinyl)-, 2-[(2-fluorophenyl)sulfonyl]hydrazide) (Baell, J., Nguyen, H. N., Leaver, D. J., Cleary, B. L., Lagiakos, H. R., Sheikh, B. N., Thomas. T. J., Aryl sulfonohydrazides, WO2016198507A1, 2016) at 10 μM concentration and 200 μL transferred to the cells. After incubation for 24 hours, the cells were fixed with 3.7% formaldehyde in PBS for 20 minutes at room temperature, washed (5×5 minutes) with phosphate buffer saline containing 0.1% Tween 20 and blocked with Odyssey blocking buffer (LI-COR, Lincoln, Nebr.) containing 0.1% TritonX100. Anti-H3K23ac specific antibody (Abcam ab177275) in Odyssey blocking buffer containing 0.1% Tween 20 was added and incubated for 16 hours at 4 degree Celsius. After washing (as above), a secondary antibody labelled with Alexa647 dye (LifeTechnologies) and Hoechst 33342 (1 μg/mL, SigmaAldrich) were added for 1 hour incubation. Plates were washed as previously and read on a PerkinElmer Phenix high content imaging platform. Using a Columbus image analysis pipeline, individual nuclei were located by Hoechst 33342 stain and the acetylation level was calculated from the Alexa647-related intensity in the same area. The resulting mean intensity per cell was directly converted to percent inhibition relative to controls on the same plate and the data fitted against a four-parameter logistic model to determine the 50% inhibitory concentration (IC50).

For assay [8], the target named is T5, MOF-KAT8 (Homo sapiens, UniProt Q9H7Z6).
T5 sequence (Q9H7Z6 177-447): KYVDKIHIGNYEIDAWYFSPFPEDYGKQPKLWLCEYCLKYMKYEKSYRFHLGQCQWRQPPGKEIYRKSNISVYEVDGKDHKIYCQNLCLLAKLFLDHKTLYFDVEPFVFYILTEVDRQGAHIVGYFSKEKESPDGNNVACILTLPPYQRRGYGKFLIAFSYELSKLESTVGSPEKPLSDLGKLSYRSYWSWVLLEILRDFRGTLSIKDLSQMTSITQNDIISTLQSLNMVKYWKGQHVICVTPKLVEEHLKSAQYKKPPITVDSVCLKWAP
In words: Revised Acetyltransferase Biochemical Assay, KAT8.

In assay [9] the target is T3, HBO-KAT7. In words: Acetyltransferase biochemical assay (AlphaScreen), KAT7. Conditions: Table 3 (HBO-KAT7); 0.4 μM Acetyl coenzyme A, histone H3.1, 40 nM enzyme.
In assay [10] the target is T5, MOF-KAT8. Description: Acetyltransferase biochemical assay (AlphaScreen), KAT8. Conditions: Table 4 (MOF-KAT8); 0.4 μM Acetyl coenzyme A, histone H4, 20 nM enzyme.
The subject of assay [11] is histone H3 Lysine 14 acetylation (HBO1 mediated) in U2OS cells. Description: Histone H3 Lysine 14 Acetylation Biomarker Assay (384-well, U2OS). Type of assay: cell-based. Particulars: Homo sapiens, serum free medium, 24 hours incubation. The method, boiled down: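 U2OS cells in serum-free medium treated with compound 24 h; DMSO and 10 μM reference inhibitor as 0% and 100% controls. Fixed cells immunostained for H3K14ac (AlexaFluor 488) with Hoechst nuclear mask, imaged by high-content analysis; per-cell intensity converted to % inhibition, IC50 by four-parameter logistic fit.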

For assay [12], the system named is histone H2A.Z Lysine 7 acetylation (TIP60 mediated) in U2OS cells. Description: H2A.Z Lysine 7 Acetylation Biomarker Assay (384-well, U2OS). Type of assay: cell-based. Conditions: Homo sapiens, serum free medium, 24 hours incubation. The method, boiled down: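 U2OS cells (3,000/well) were treated with compound for 24 h after a serum-free wash, then fixed. They were stained with anti-H2A.ZK7ac, an AlexaFluor 488 secondary and Hoechst. High-content imaging gave mean nuclear intensity per cell, converted to percent inhibition against on-plate controls, and IC50 came from a four-parameter logistic fit.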

Drawing on patent US20210380548A1, “Fused [1,2,4]Thiadiazine Derivatives Which Act as KAT Inhibitors of the MYST Family” (CTxT Pty Limited, priority 2017, published 2021), this text covers IC50 for eleven molecules.

As usually defined, the IC50 is the midpoint of a concentration-inhibition curve.

The structures appear in SMILES notation.

T3 sequence (O95251 with tags, fused parts or gaps): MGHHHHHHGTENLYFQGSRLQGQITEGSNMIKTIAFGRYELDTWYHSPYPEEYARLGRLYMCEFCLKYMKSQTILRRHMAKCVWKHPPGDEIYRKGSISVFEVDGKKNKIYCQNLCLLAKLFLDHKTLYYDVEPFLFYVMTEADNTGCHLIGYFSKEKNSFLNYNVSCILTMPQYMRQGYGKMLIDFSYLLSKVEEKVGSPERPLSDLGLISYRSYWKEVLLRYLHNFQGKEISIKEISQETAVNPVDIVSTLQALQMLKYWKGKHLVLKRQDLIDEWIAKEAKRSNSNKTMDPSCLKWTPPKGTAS
T1 sequence (Q92993 2-461 isoform Q92993-2): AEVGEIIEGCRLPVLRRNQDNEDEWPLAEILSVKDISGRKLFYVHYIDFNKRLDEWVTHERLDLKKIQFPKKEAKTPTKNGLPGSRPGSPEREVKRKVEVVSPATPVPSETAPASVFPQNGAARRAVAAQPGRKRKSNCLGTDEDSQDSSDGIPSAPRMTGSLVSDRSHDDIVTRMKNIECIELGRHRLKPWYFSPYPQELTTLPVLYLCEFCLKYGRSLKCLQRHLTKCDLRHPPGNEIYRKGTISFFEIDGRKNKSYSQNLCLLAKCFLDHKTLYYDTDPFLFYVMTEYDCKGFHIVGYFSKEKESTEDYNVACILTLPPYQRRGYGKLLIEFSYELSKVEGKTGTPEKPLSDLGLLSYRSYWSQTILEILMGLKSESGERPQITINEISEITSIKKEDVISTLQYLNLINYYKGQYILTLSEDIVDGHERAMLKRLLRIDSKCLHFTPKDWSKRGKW
T4 sequence (Q8WYB5 whole entry): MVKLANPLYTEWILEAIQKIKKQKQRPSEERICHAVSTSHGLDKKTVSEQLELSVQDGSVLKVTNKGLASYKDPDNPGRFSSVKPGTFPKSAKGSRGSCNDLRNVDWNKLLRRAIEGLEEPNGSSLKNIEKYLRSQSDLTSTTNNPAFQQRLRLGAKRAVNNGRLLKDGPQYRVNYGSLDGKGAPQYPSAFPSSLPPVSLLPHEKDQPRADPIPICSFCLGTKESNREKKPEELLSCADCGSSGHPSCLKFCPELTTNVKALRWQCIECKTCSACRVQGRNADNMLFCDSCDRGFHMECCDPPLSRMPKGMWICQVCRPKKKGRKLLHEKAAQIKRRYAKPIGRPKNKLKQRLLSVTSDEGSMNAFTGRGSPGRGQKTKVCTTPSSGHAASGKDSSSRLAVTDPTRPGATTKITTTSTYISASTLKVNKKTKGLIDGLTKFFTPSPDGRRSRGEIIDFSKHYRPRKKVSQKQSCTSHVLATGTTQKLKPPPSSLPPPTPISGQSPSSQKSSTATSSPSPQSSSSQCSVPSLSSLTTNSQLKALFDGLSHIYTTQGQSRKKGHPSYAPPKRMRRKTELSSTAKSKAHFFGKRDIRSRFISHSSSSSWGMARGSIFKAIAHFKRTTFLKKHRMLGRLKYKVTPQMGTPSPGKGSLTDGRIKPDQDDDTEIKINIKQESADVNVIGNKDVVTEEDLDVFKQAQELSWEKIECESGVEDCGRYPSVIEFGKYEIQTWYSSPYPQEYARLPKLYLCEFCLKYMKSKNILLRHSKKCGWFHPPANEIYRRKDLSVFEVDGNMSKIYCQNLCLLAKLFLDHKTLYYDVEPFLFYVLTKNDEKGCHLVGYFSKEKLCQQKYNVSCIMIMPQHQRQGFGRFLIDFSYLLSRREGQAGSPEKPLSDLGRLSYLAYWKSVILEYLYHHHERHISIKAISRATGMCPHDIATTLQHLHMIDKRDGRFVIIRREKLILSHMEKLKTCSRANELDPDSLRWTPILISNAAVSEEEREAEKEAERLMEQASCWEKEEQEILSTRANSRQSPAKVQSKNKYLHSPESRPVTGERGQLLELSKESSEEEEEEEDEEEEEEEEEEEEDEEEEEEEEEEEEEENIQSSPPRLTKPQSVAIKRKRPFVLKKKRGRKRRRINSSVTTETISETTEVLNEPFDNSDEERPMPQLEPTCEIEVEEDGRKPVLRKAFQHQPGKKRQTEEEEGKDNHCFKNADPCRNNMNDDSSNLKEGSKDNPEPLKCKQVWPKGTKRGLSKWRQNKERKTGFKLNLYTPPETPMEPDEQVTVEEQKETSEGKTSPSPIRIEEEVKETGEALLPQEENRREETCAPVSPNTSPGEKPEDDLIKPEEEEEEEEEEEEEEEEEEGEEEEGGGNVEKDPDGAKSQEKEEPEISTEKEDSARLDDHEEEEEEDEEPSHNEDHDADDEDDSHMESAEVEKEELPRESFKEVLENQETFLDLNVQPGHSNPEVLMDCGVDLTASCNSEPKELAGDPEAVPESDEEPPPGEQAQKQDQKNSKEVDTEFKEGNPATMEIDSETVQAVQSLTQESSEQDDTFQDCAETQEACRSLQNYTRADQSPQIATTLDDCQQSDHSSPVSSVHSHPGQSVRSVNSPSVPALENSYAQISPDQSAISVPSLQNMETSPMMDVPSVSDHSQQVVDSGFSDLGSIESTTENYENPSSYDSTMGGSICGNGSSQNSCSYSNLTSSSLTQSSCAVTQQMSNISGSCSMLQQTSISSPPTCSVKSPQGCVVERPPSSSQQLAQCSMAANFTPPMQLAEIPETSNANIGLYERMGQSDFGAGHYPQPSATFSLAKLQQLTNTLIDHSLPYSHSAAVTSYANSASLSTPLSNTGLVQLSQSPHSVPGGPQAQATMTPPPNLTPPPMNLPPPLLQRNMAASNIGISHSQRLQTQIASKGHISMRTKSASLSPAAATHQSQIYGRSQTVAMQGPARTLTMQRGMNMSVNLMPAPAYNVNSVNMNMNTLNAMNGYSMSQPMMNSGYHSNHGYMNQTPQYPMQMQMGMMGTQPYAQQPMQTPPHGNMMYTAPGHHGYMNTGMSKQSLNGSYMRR
T2 sequence (Q92794 507-778 A567V limits assumed): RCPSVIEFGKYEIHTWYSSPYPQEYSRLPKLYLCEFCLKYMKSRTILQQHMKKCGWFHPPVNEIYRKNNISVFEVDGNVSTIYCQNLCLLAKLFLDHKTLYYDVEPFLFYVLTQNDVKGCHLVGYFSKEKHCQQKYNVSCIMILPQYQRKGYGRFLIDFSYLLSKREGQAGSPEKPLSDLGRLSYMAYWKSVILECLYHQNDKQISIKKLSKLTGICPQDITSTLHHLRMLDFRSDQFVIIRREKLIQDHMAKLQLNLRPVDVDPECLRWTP

Regarding `O=C(NCC(c1ccccc1)c1ncco1)C1=Nc2ccc(F)cc2S(=O)(=O)N1` (single isomer, unassigned) [Example 144], the IC50 in assay [1] was found to be 1.65 µM; in assay [2], 120 nM; in [3] it was 21 nM; in assay [4], 1390 nM; in [5], 1060 nM; in [6], 459 nM. The IC50 in [7] stood at 104 nM; in assay [8] (read-out: IC50 (MOF-KAT8), Revised acetyltransferase biochemical assay, 20 nM KAT8, 1 μM AcCoA, 100 nM histone H4, 90 min), 46.7 µM.
For the molecule `Cn1cc(-c2ccc3c(c2)S(=O)(=O)NC(C(=O)NCC(c2ccccc2)c2ncco2)=N3)cn1` (centres unmarked) [Example 25, 7-(1-Methyl-1H-pyrazol-4-yl)-N-(2-(oxazol-2-yl)-2-phenylethyl)-2H-benzo[e][1,2,4]thiadiazine-3-carboxamide 1,1-dioxide], the IC50 in assay [1] turned out to be 6.89 µM; in [2], 51.2 nM; in assay [9], 1930 nM; in [10], 78.2 µM; in assay [3], 64 nM; in assay [4], 12000 nM. For the same molecule, the IC50 in [5] is 5910 nM; in [6], 610 nM; in assay [7] (Homo sapiens) it was 3820 nM; in assay [8] it was > 125 µM.
For the molecule `O=C(NCC(c1ccccc1)c1ncco1)C1=Nc2ccc(-c3cn[nH]c3)cc2S(=O)(=O)N1` (centres unmarked) [Example 26, N-(2-(Oxazol-2-yl)-2-phenylethyl)-7-(1H-pyrazol-4-yl)-2H-benzo[e][1,2, 4]thiadiazine-3-carboxamide 1,1-dioxide], the IC50 in [1] was 1.66 µM; in assay [2] it was 28.7 nM; in assay [9], 1480 nM; in [10], 23.7 µM; in assay [3], 41 nM; in assay [4] it was 5070 nM. The half-maximal inhibitory concentration (IC50) stood at 5940 nM in assay [5], 120 nM in assay [6], 1080 nM in assay [7] (Homo sapiens) and 39.9 µM in assay [8].
For the molecule `CNC(=O)c1ccc2c(c1)S(=O)(=O)NC(C(=O)NCC(c1ccccc1)c1ncco1)=N2` (centres unmarked) [Example 32, N^7-Methyl-N^3-(2-(oxazol-2-yl)-2-phenylethyl)-2H-benzo[e][1,2,4]thiadiazine-3,7-dicarboxamide 1,1-dioxide], the IC50 in assay [1] came out at 5.04 µM; in assay [2], 49.8 nM; in assay [9], 4640 nM; in assay [10], 74.1 µM; in assay [3], 30 nM; in assay [4] it was 356 nM. Besides, the IC50 in [5] was 5330 nM; in [6], 155 nM; in [7] (Homo sapiens) it was > 10000 nM; in assay [8], > 125 µM.
Take `O=C(NCC(c1ccccc1)c1nccs1)C1=Nc2ccc(Cl)cc2S(=O)(=O)N1` (centres unmarked) [Example 166]: the IC50 turned out to be 7 nM in assay [3]; 183 nM in assay [4]; 714 nM in [5]; 72 nM in [6]; 611 nM in [11]; 5.35 µM in assay [12]. Moreover, the IC50 in assay [7] (Homo sapiens) worked out at 93 nM; in assay [8], 36.8 µM.
Take `COc1cc(C)cc(C(CNC(=O)C2=Nc3ccc(I)cc3S(=O)(=O)N2)c2ncco2)c1` (centres unmarked) [Example 196, 7-iodo-N-(2-(3-methoxy-5-methylphenyl)-2-(oxazol-2-yl)ethyl)-2H-benzo[e][1,2,4]thiadiazine-3-carboxamide 1,1-dioxide]: the IC50 came to 80 nM in [3]; 25 nM in assay [4]; 818 nM in assay [5]; 991 nM in assay [6]; 95 nM in assay [11]; 0.882 µM in [12]. The IC50 stood at 1010 nM in assay [7] (Homo sapiens) and 78.6 µM in assay [8].
For `O=C(NCCC1CCCCC1)C1=Nc2ccc(-c3c[nH]nn3)cc2S(=O)(=O)N1` [Example 201], the IC50 was 268 nM in [3]; 56500 nM in assay [4]; 43700 nM in assay [5]; 5260 nM in [6]; > 40000 nM in assay [11]; > 40 µM in assay [12]. Moreover, in assay [7] (Homo sapiens), the IC50 was > 10000 nM.
`O=C(NCCC1CCCCC1)C1=Nc2ccc(I)cc2S(=O)(=O)N1` [Example 204]: the IC50 in assay [10] was > 125 µM; in [3], 122 nM; in assay [4] it was 59500 nM; in assay [5], > 125000 nM; in [6], > 125000 nM; in [12] it was > 40 µM. For the same molecule, the IC50 in assay [7] (Homo sapiens) was > 10000 nM; in assay [8] it was > 125 µM.
Regarding `Cc1cc(O)cc(C(CNC(=O)C2=Nc3ccc(Cl)cc3S(=O)(=O)N2)c2ncco2)c1` (centres unmarked) [Example 221, 7-Chloro-N-(2-(3-hydroxy-5-methylphenyl)-2-(oxazol-2-yl)ethyl)-2H-benzo[e][1,2,4]thiadiazine-3-carboxamide 1,1-dioxide], the IC50 in [3] turned out to be 572 nM; in [4], 72 nM; in assay [5], 1570 nM; in assay [6] it was 4340 nM; in assay [11], 1660 nM; in [12], 6.87 µM. Further, in assay [7] (Homo sapiens), the IC50 is > 10000 nM.
As to `Cc1cccc(C(CNC(=O)C2=Nc3ccc(I)cc3S(=O)(=O)N2)c2ncco2)c1` (centres unmarked) [Example 233, 7-iodo-N-(2-(oxazol-2-yl)-2-(m-tolyl)ethyl)-2H-benzo[e][1,2,4]thiadiazine-3-carboxamide 1,1-dioxide], the IC50 in assay [9] was determined as 38 nM; in assay [10] it was 6.13 µM; in assay [3] it was 13 nM; in assay [4] it was 14 nM; in assay [5], 154 nM; in assay [6], 254 nM. In addition, the IC50 in [11] was found to be 3200 nM; in assay [12], 1.99 µM; in assay [8], 9.25 µM.
On to `O=C(NCC(F)(F)c1ccccc1)C1=Nc2ccc(I)cc2S(=O)(=O)N1` [Example 238, N-(2,2-difluoro-2-phenylethyl)-7-iodo-2H-benzo[e][1,2,4]thiadiazine-3-carboxamide 1,1-dioxide], for which the IC50 came out at 41.4 µM in [10]; 188 nM in assay [3]; 881 nM in assay [4]; 1810 nM in assay [5]; 5870 nM in assay [6]; 13700 nM in assay [11]. In assay [8], this molecule returned a 50% inhibitory concentration (IC50) of 25.6 µM.
